Legend:
rheumatoid arthritis = conditions: general statement on RA therapy; cited from earlier work
[1] = system: Outpatients with active rheumatoid arthritis; assay: Clinical study of Anti-Rheumatoid Arthritis Liquor (ARL) versus active control (MTX combination); assay type: in vivo, human; conditions: for number of patients with 50% improvement (R50) / number of patients with 75% improvement (R75) / number of patients with 100% improvement (R100) / % of patients with 50% improvement (R50) / % of patients with 75% improvement (R75) / % of patients with 100% improvement (R100): 20 patients per group
Method: Outpatients with active rheumatoid arthritis, according to the classification criteria of the American Arthritis College, without other significant medical conditions were recruited. 40 patients were recruited, 7 male and 33 female. Their ages were ranged from 28-67 years old with average of 46.8 years old. The disease duration of the patients ranged from 0.4 to 13 years.
[…] Observe group, 20 patients, was treated with ARL (30 ml/d). It was taken before sleep or equally divided to be taken in the morning and evening.
The outcome measurements for the both groups were divided to signs and symptoms, including: rest pain assessment, duration of morning stiffness, number of tender joint and the index of tenderness, number of swelling joints and the swelling index, grip strength, joint function, erythrocyte sedimentation rate, C reaction protein, and rheumatoid factor. The individual parameter improvement was calculated through the following formula:
The total improvement was used to compare the efficacy between the two groups. In order to accurately reflect the drug efficacy, 50% improvement, 75% improvement, and 100% improvement (R50, R75 and R100) were used as statistical endpoint for efficacy.

[2] = system: Outpatients with active rheumatoid arthritis; assay: Clinical study of Anti-Rheumatoid Arthritis Capsule (ARC) versus active control (MTX combination); conditions: for % of patients with 50% improvement (R50) / number of patients with 50% improvement (R50) / number of patients with 75% improvement (R75) / number of patients with 100% improvement (R100) / % of patients with 75% improvement (R75): 18 patients per group
Method: Anti-Rheumatoid Arthritis Capsule (ARC) is a capsule made of the powder form of the herbal composition of the present invention in accordance with the components and method shown in Example 1. To assess the basic efficacy and side effect of ARC, an open, randomized and active controlled clinical trial was carried out.
Outpatients with active rheumatoid arthritis, according to the classification criteria of the American Arthritis College, without other significant medical conditions were recruited. […] Safety and compliance were monitored every 2 weeks with complete outcome evaluation at 4, 8, and 12 weeks.
Thirty-six (36) typical active RA patients were selected and randomly divided into two groups. Observe group, 18 patients, was treated with ARC (4 capsules t.i.d., each capsule is about 0.3 g).
The improvement was denoted as either R50, R75 or R100 reflecting either an improvement to the 50%, 75%, or 100% level in the parameters based on the improvements of signs and symptoms including rest pain assessment, duration of morning stiffness, number of tender joint and the index of tenderness, number of swelling joints and the swelling index, grip strength, joint function, erythrocyte sedimentation rate, C reaction protein, and rheumatoid factor.

[3] = 26 weeks, listed as combination of oral MTX and NSAID
[4] = 52 weeks, listed as combination of oral MTX and NSAID
[5] = 12 weeks, listed as active control

patients who complained about stomachalgia ([2]; 12 weeks observation, 18 patients): 3 patients
Structure (SMILES): CN(Cc1cnc2nc(N)nc(N)c2n1)c1ccc(C(=O)N[C@@H](CCC(=O)O)C(=O)O)cc1 [MTX, Methotrexate]
time usually required to show some clinical effect (rheumatoid arthritis): 12-24 weeks | time required to reach R50 [1]: 8-12 weeks | time required to reach R75 [1]: 20-32 weeks | time required to reach R100 [1]: 52 weeks | number of patients with 50% improvement (R50) ([1]; 4 weeks): 0 | number of patients with 75% improvement (R75) ([1]; 4 weeks): 0 | number of patients with 100% improvement (R100) ([1]; 4 weeks): 0 | number of patients with 50% improvement (R50) ([1]; 8 weeks): 0 | number of patients with 75% improvement (R75) ([1]; 8 weeks): 0 | number of patients with 100% improvement (R100) ([1]; 8 weeks): 0 | % of patients with 50% improvement (R50) ([1]; 12 weeks): (45) % | number of patients with 50% improvement (R50) ([1]; 12 weeks): 9 | number of patients with 75% improvement (R75) ([1]; 12 weeks): 0 | number of patients with 100% improvement (R100) ([1]; 12 weeks): 0 | % of patients with 50% improvement (R50) ([1]; 12 weeks, listed as combination of oral MTX and NSAID): 45% | % of patients with 50% improvement (R50) ([1]; 26 weeks): (40) % | % of patients with 75% improvement (R75) ([1]; 26 weeks): (50) % | number of patients with 50% improvement (R50) ([1]; 26 weeks): 8 | number of patients with 75% improvement (R75) ([1]; 26 weeks): 10 | number of patients with 100% improvement (R100) ([1]; 26 weeks): 0 | % of patients with 50% improvement (R50) [1, 3]: 40% | % of patients with 75% improvement (R75) [1, 3]: 50% | % of patients with 75% improvement (R75) ([1]; 52 weeks): (75) % | % of patients with 100% improvement (R100) ([1]; 52 weeks): (25) % | number of patients with 50% improvement (R50) ([1]; 52 weeks): 0 | number of patients with 75% improvement (R75) ([1]; 52 weeks): 15 | number of patients with 100% improvement (R100) ([1]; 52 weeks): 5 | % of patients with 75% improvement (R75) [1, 4]: 75% | % of patients with 100% improvement (R100) [1, 4]: 25% | Time Required for Improvement, R50 ([1]; Table 5, value ± spread): 15.2 ± 5.43 week | Time Required for Improvement, R75 ([1]; Table 5, value ± spread): 27.7 ± 10.5 week | Time Required for Improvement, R100 ([1]; Table 5, value ± spread): 47.2 ± 10.7 week | % of patients with 50% improvement (R50) ([2]; 4 weeks): (11.1) % | number of patients with 50% improvement (R50) ([2]; 4 weeks): 2 | number of patients with 75% improvement (R75) ([2]; 4 weeks): 0 | number of patients with 100% improvement (R100) ([2]; 4 weeks): 0 | % of patients with 50% improvement (R50) ([2]; 4 weeks, listed as active control): 11.1% | % of patients with 50% improvement (R50) ([2]; 8 weeks): (11.1) % | number of patients with 50% improvement (R50) ([2]; 8 weeks): 2 | number of patients with 75% improvement (R75) ([2]; 8 weeks): 0 | number of patients with 100% improvement (R100) ([2]; 8 weeks): 0 | % of patients with 50% improvement (R50) ([2]; 8 weeks, listed as active control): 11.1% | % of patients with 50% improvement (R50) ([2]; 12 weeks): (55.5) % | % of patients with 75% improvement (R75) ([2]; 12 weeks): (11.1) % | number of patients with 50% improvement (R50) ([2]; 12 weeks): 10 | number of patients with 75% improvement (R75) ([2]; 12 weeks): 2 | % of patients with 50% improvement (R50) [2, 5]: 55.5% | % of patients with 75% improvement (R75) [2, 5]: 11.1%
